The values that follow come from patent US9670227B2, “Thienopyrimidine derivatives, a process for their preparation and pharmaceutical compositions containing them” (LES LABORATOIRES SERVIER, priority 2013, dated 2017).

In one experiment the target is Mcl-1 protein (UniProtKB primary accession number: Q07820) (Homo sapiens, UniProt Q07820). In words: Inhibition of Mcl-1 by fluorescence polarisation, Method 1. In kind it is binding. The following applies: read-out: IC50 (M) Mcl-1 FP. Put shortly: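 FP readout of relative binding potency. Mcl-1 5 nM final, fluorescein-labelled ligand 1 nM final; buffer 10 mM HEPES, 150 mM NaCl, 0.05% Tween 20, pH 7.4; 11-pt dilution series, 5% DMSO final.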
Sequence of Mcl-1 protein (Q07820 whole entry): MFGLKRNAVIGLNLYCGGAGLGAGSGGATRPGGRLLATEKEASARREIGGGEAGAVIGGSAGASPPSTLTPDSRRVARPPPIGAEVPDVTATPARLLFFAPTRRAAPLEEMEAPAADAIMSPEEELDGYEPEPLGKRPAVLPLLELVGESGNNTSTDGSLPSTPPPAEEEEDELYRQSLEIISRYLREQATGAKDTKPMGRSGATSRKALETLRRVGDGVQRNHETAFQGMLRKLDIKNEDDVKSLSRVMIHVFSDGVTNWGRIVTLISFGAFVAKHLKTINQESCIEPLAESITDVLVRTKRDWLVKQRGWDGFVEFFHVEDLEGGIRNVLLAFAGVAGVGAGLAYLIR

The subject of experiment [1] is H929 multiple myeloma tumour line. In words: In vitro cytotoxicity, Microculture Tetrazolium Assay. In kind it is cell-based. The following applies: Homo sapiens, NCI-H929, 48 h, H929 cells, 48 hours exposure, read-out: IC50 (μM) MTT H929. As to the method: The cytotoxicity studies were carried out on the H929 multiple myeloma tumour line.
The cells are distributed onto microplates and exposed to the test compounds for 48 hours.

The test system of experiment [2] is AMO-1 multiple myeloma cells. The experiment in a line: Quantification of the cleaved form of PARP in vivo (MSD ELISA, tumour lysates). On the set-up: species or system mice (SCID strain). The following applies: activation factor: cleaved PARP in treated mice / control mice, AMO-1 xenograft in SCID mice, intraveinous or oral routes. Summed up:
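SCID mice bearing subcutaneous AMO-1 xenografts (1.10^7 cells) dosed intravenously or orally 12 to 14 days after grafting. Cleaved PARP in tumour lysates measured by MSD ELISA. Reported as activation factor, the ratio of treated to control cleaved PARP.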

Setting [3] is: fluorescence polarisation, Method 1, or Method 2.
The mark [4] stands for this setting: fluorescence polarisation test, Method 1, or Method 2 where the value is underlined (underlining not visible).

Where two headings read alike, the source gives them in different places.

A word on the IC50: it is the concentration at which inhibition is half-maximal. `COc1ccccc1-c1nccc(COc2ccccc2CC(Oc2ncnc3sc(-c4ccc(F)cc4)c(-c4ccc(OCCN5CCN(C)CC5)c(Cl)c4Cl)c23)C(=O)O)n1` [Example 743, (2R)-2-{[(5Sa)-5-{2,3-dichloro-4-[2-(4-methylpiperazin-1-yl)ethoxy]phenyl}-6-(4-fluorophenyl)thieno[2,3-d]pyrimidin-4-yl]oxy}-3-(2-{[2-(2-methoxyphenyl)pyrimidin-4-yl]methoxy}phenyl)propanoic acid]: the half-maximal inhibitory concentration (IC50) on Mcl-1 protein (setting [3]) turned out to be 9.48e-10 M; in experiment [1] (MTT) it was 0.005 µM. Besides, in experiment [2], the PARP fold was found to be 147.3 fold.
For `Cc1c(-c2c(-c3ccc(F)cc3)sc3ncnc(OC(Cc4ccccc4OCc4ccnn4C(C)(C)C)C(=O)O)c23)ccc(OCCN(C)C)c1Cl` [Example 750, (2R)-3-{2-[(1-tert-butyl-1H-pyrazol-5-yl)methoxy]phenyl}-2-{[(5Sa)-5-{3-chloro-4-[2-(dimethylamino)ethoxy]-2-methylphenyl}-6-(4-fluorophenyl)thieno[2,3-d]pyrimidin-4-yl]oxy}propanoic acid], in that order: 1.33e-09 M, 0.035 µM and 181.6 fold.
As to `Cc1c(-c2c(-c3ccc(F)cc3)sc3ncnc(OC(Cc4ccccc4OCc4ccnc(-c5ccccc5F)n4)C(=O)O)c23)ccc(OCCN(C)C)c1Cl` [Example 757, (2R)-2-{[(5Sa)-5-{3-chloro-4-[2-(dimethylamino)ethoxy]-2-methylphenyl}-6-(4-fluorophenyl)thieno[2,3-d]pyrimidin-4-yl]oxy}-3-(2-{[2-(2-fluorophenyl)pyrimidin-4-yl]methoxy}phenyl)propanoic acid], the IC50 amounted to 3.95e-09 M on Mcl-1 protein (setting [3]) and 0.013 µM in experiment [1] (MTT). The compound also gave a PARP fold in experiment [2] of 135.6 fold.
Take `COc1ccccc1-c1nccc(COc2ccccc2CC(Oc2ncnc3sc(-c4ccc(OCc5ccccc5)cc4)c(-c4ccc(OCCN5CCN(C)CC5)c(Cl)c4C)c23)C(=O)O)n1` [Example 762, (2R)-2-[(6-[4-(benzyloxy)phenyl]-(5Sa)-5-{3-chloro-2-methyl-4-[2-(4-methylpiperazin-1-yl)ethoxy]phenyl}thieno[2,3-d]pyrimidin-4-yl)oxy]-3-(2-{[2-(2-methoxyphenyl)pyrimidin-4-yl]methoxy}phenyl)propanoic acid]: the concentration for half-maximal inhibition (IC50) on Mcl-1 protein (setting [3]) was 1.88e-09 M; in experiment [1] (MTT), 0.014 µM. In experiment [2], the PARP fold turned out to be 136.9 fold.
For the compound `COc1ccccc1-c1nccc(COc2ccccc2CC(Oc2ncnc3sc(-c4ccc(OCc5ccncc5)cc4)c(-c4ccc(OCCN5CCN(C)CC5)c(Cl)c4C)c23)C(=O)O)n1` [Example 774, (2R)-2-[((5Sa)-5-{3-chloro-2-methyl-4-[2-(4-methylpiperazin-1-yl)ethoxy]phenyl}-6-[4-(pyridin-4-ylmethoxy)phenyl]thieno[2,3-d]pyrimidin-4-yl)oxy]-3-(2-{[2-(2-methoxyphenyl)pyrimidin-4-yl]methoxy}phenyl)propanoic acid], the figures for the IC50 (at Mcl-1 protein (setting [3]); in experiment [1] (MTT)) were 9.48e-10 M and 0.009 µM, respectively. In experiment [2], this compound showed a PARP fold of 104.8 fold.
As for `COc1ccccc1-c1nccc(COc2ccccc2CC(Oc2ncnc3sc(C#CCCc4ccccc4)c(-c4ccc(OCCN5CCN(C)CC5)c(Cl)c4C)c23)C(=O)O)n1` [Example 781, (2R)-2-{[(5Sa)-5-{3-chloro-2-methyl-4-[2-(4-methylpiperazin-1-yl)ethoxy]phenyl}-6-(4-phenylbut-1-yn-1-yl)thieno[2,3-d]pyrimidin-4-yl]oxy}-3-(2-{[2-(2-methoxyphenyl)pyrimidin-4-yl]methoxy}phenyl)propanoic acid], the values for the IC50 (on Mcl-1 protein (setting [3]); in experiment [1] (MTT)) were 9.48e-10 M and 0.033 µM, respectively. Also, the PARP fold in experiment [2] was 113.3 fold.
Take `COC(=O)C(Cc1ccccc1OCc1ccnc(-c2ccccc2OC)n1)Oc1ncnc2sc(-c3ccc(F)cc3)c(-c3ccc(OCCN4CCN(C)CC4)c(Cl)c3C)c12` [Example 787, methyl (2R)-2-{[(5Sa)-5-{3-chloro-2-methyl-4-[2-(4-methylpiperazin-1-yl)ethoxy]phenyl}-6-(4-fluorophenyl)thieno[2,3-d]pyrimidin-4-yl]oxy}-3-(2-{[2-(2-methoxyphenyl)pyrimidin-4-yl]methoxy}phenyl)propanoate]: the IC50 came out at 4.71e-07 M on Mcl-1 protein (setting [3]) and 0.245 µM in experiment [1] (MTT). This compound yielded a PARP fold in experiment [2] of 131.5 fold.
For `COc1ccccc1-c1nccc(COc2ccccc2CC(Oc2ncnc3sc(-c4ccc(F)cc4)c(-c4ccc(OCCN5CCN(C)CC5)c(Cl)c4C)c23)C(=O)OC(C)C)n1` [Example 788, propan-2-yl (2R)-2-{[(5Sa)-5-{3-chloro-2-methyl-4-[2-(4-methylpiperazin-1-yl)ethoxy]phenyl}-6-(4-fluorophenyl)thieno[2,3-d]pyrimidin-4-yl]oxy}-3-(2-{[2-(2-methoxyphenyl)pyrimidin-4-yl]methoxy}phenyl)propanoate], in that order: 6.74e-07 M, 0.494 µM and 144.8 fold.
Take `COCCOC(=O)C(Cc1ccccc1OCc1ccnc(-c2ccccc2OC)n1)Oc1ncnc2sc(-c3ccc(F)cc3)c(-c3ccc(OCCN4CCN(C)CC4)c(Cl)c3C)c12` [Example 789, 2-methoxyethyl (2R)-2-{[(5Sa)-5-{3-chloro-2-methyl-4-[2-(4-methylpiperazin-1-yl)ethoxy]phenyl}-6-(4-fluorophenyl)thieno[2,3-d]pyrimidin-4-yl]oxy}-3-(2-{[2-(2-methoxyphenyl)pyrimidin-4-yl]methoxy}phenyl)propanoate]: the IC50 at Mcl-1 protein (setting [3]) was 3.82e-07 M; in experiment [1] (MTT), 0.206 µM. This compound yielded a PARP fold in experiment [2] of 135.2 fold.
Consider `COc1ccccc1-c1nccc(COc2ccccc2CC(Oc2ncnc3sc(-c4ccc(F)cc4)c(-c4ccc(OCCN5CCN(C)CC5)c(Cl)c4C)c23)C(=O)OCC(F)(F)F)n1` [Example 808, 2,2,2-trifluoroethyl (2R)-2-{[(5Sa)-5-{3-chloro-2-methyl-4-[2-(4-methylpiperazin-1-yl)ethoxy]phenyl}-6-(4-fluorophenyl)thieno[2,3-d]pyrimidin-4-yl]oxy}-3-(2-{[2-(2-methoxyphenyl)pyrimidin-4-yl]methoxy}phenyl)propanoate], for which the IC50 came to 1.72e-07 M on Mcl-1 protein (setting [4]) and 0.01 µM in experiment [1] (cell viability). The PARP fold in experiment [2] is 155 fold.
For `COc1ccccc1-c1nccc(COc2ccccc2CC(Oc2ncnc3sc(-c4ccc(F)cc4)c(-c4ccc(OCCN5CCN(C)CC5)c(Cl)c4C)c23)C(=O)OCOC(=O)C(C)(C)C)n1` [Example 810, {[(2R)-2-{[(5Sa)-5-{3-chloro-2-methyl-4-[2-(4-methylpiperazin-1-yl)ethoxy]phenyl}-6-(4-fluorophenyl)thieno[2,3-d]pyrimidin-4-yl]oxy}-3-(2-{[2-(2-methoxyphenyl)pyrimidin-4-yl]methoxy}phenyl)propanoyl]oxy}methyl 2,2-dimethylpropanoate], in that order: 4.2e-07 M, 0.001 µM and 122.4 fold.
For `COc1ccccc1-c1nccc(COc2ccccc2CC(Oc2ncnc3sc(-c4ccc(F)cc4)c(-c4ccc(OCCN5CCN(C)CC5)c(Cl)c4C)c23)C(=O)OCc2oc(=O)oc2C)n1` [Example 811, (5-methyl-2-oxo-1,3-dioxol-4-yl)methyl (2R)-2-{[(5Sa)-5-{3-chloro-2-methyl-4-[2-(4-methylpiperazin-1-yl)ethoxy]phenyl}-6-(4-fluorophenyl)thieno[2,3-d]pyrimidin-4-yl]oxy}-3-(2-{[2-(2-methoxyphenyl)pyrimidin-4-yl]methoxy}phenyl)propanoate], the IC50 at Mcl-1 protein (setting [4]) stood at 8.55e-09 M; in experiment [1] (cell viability) it was 0.002 µM. The compound further showed a PARP fold in experiment [2] of 117.6 fold.
Consider `COc1ccccc1-c1nccc(COc2ccccc2CC(Oc2ncnc3sc(-c4ccc(F)cc4)c(-c4ccc(OCCN5CCN(C)CC5)c(Cl)c4C)c23)C(=O)OCC(=O)N(C)C)n1` [Example 812, 2-(dimethylamino)-2-oxoethyl (2R)-2-{[(5Sa)-5-{3-chloro-2-methyl-4-[2-(4-methylpiperazin-1-yl)ethoxy]phenyl}-6-(4-fluorophenyl)thieno[2,3-d]pyrimidin-4-yl]oxy}-3-(2-{[2-(2-methoxyphenyl)pyrimidin-4-yl]methoxy}phenyl)propanoate], for which the IC50 on Mcl-1 protein (setting [4]) was determined as 6.51e-07 M; in experiment [1] (cell viability) it was 0.103 µM. The compound further yielded a PARP fold in experiment [2] of 136 fold.
Turning to `COCCOCCOC(=O)C(Cc1ccccc1OCc1ccnc(-c2ccccc2OC)n1)Oc1ncnc2sc(-c3ccc(F)cc3)c(-c3ccc(OCCN4CCN(C)CC4)c(Cl)c3C)c12` [Example 814, 2-(2-methoxyethoxy)ethyl (2R)-2-{[(5Sa)-5-{3-chloro-2-methyl-4-[2-(4-methylpiperazin-1-yl)ethoxy]phenyl}-6-(4-fluorophenyl)thieno[2,3-d]pyrimidin-4-yl]oxy}-3-(2-{[2-(2-methoxyphenyl)pyrimidin-4-yl]methoxy}phenyl)propanoate], the IC50 came out at 6.39e-07 M on Mcl-1 protein (setting [4]) and 0.314 µM in experiment [1] (cell viability). For the same compound, the PARP fold in experiment [2] came out at 118.5 fold.
